Legend:
Type in all cases: cell-based, human
HUVEC [1] = experiment: Transwell chemotaxis assay towards VEGF; details: vector-transfected HUVEC, FIG. 3D
Description: FIG. 3. TCPTP activity controls VEGF-dependent responses in endothelial cells. (A) HUVEC were transfected with the constitutively active TCPTP (TC37) or vector control (pCG), stimulated or not with VEGF, and stained for VEGFR2 (red) and nuclei (blue) after fixation and permeabilization. Arrows indicate VEGFR2 vesicles. (B) HUVEC were treated as in (A) and subjected to trypsin digestion on ice. VEGFR2 protected from trypsin (=internalized pool) was detected by immunoblotting. The intensities of VEGFR2 bands were quantified and are expressed relative to pCG-VEGF control. A representative experiment out of 2 with similar results is shown. (C) HUVEC were transfected with no oligo, siRNA against TCPTP or a control siRNA, and TCPTP expression was measured using immunoblotting. Cells were treated with 80 ng/ml VEGF and proliferation of sparse cells plated on gelatin was assayed after 16 h using BrdU-based assay (mean±SD; n=4-6; *, p<0.05). (D) HUVEC were transfected as in (A) and chemotaxis towards VEGF was measured using a Transwell assay for 4 hours. Cells adhering to the bottom of the filter were fixed and stained with crystal violet. Number of migrated cells was counted (mean±SEM, n=3).
(§1) FIG. 5. Controlled TCPTP activation inhibits VEGF-driven capillary formation, chemokinesis and chemotaxis. (A) HUVEC were cultured in fibrin gels and treated with or without VEGF and TAT peptides (200 nM). After 24 h the formation of capillary tubes was semiquantitatively scored. (B) HUVEC were plated on gelatin in the presence of the peptides (200 nM) or left untreated for 1 h. The cells were stimulated as indicated and migration of individual cells was tracked using time-lapse microscopy. Cumulative migration distance was plotted for randomly picked individual cells. (C) HUVEC were treated with 200 nM peptides and the transmigration assay was performed as in FIG. 3D. (D) HUVEC were transfected with siRNA against TCPTP or a control siRNA, and TCPTP expression was analysed with immunofluorescence. Equal exposures of TCPTP (green) and DAPI (blue) stainings are shown. 48 h post-transfection cells were subjected to transmigration assay as in […].
Chemotaxis assays. HUVEC electroporated with the DNA or siRNA or non-transfected HUVEC were treated with 200 nM α1TAT, ScrTAT or left untreated for 1 h. Transwell filters (8 μm pore size, Costar, Cambridge, Mass.) were coated with gelatin and medium (RPMI, 4 mM L-glutamine, 10% FBS) and VEGF (100 ng/ml) were added to the lower chamber. Cells were harvested from the culture plates, and transferred into the Transwell inserts (4×10^5 cells/well) in RPMI with 0.2% soybean trypsin inhibitor. […] The inserts were fixed in 4% paraformaldehyde, cells stained with 0.5% crystal violet and the number of migrated cells was counted using a microscope.

VEGFR2 = VEGFR2 kinase activity from HUVEC lysates (Kinase-Glo Plus); details: HUVEC treated with no peptide or with scrambled control TAT peptide, FIG. 4B
Description: (A) Serum-starved subconfluent HUVEC were treated for 1 h with α1 integrin cytoplasmic tail fusion peptide (α1TAT) or TAT-scramble control fusion peptide (ScrTAT) (both at 200 nM) followed by VEGF-induction (100 ng/ml, 15 min) where indicated. Cell lysates were resolved on SDS-PAGE and immunoblotted for phosphorylated VEGFR2 (or tubulin as a control). (B) HUVEC were treated as in (A) and VEGFR2 kinase activity (mean±SD, n=3) was measured from the cell lysates. **, p<0.01. (C) Recombinant, purified TCPTP was incubated with α1 or α2 cytoplasmic tail peptides (L-amino acids) or with α1 and scrambled TAT peptides (D-amino acids) and analyzed for phosphatase activity (mean±SD, n=3).
VEGFR2 kinase activity was studied using Kinase-Glo Plus kinase assay kit according to manufacturer's protocol (Promega) with 25 µM ATP. Briefly, HUVEC plated on gelatin were serum-starved overnight, treated with 400 nM α1TAT or ScrTAT or left untreated and stimulated with 100 ng/ml VEGF for 15 min, when indicated. The cells were lysed to ice-cold lysis buffer (1% NP-40, 20 mM Hepes pH 7.4, 150 mM NaCl, 10% glycerol, 2.5 mM EDTA, complete protease inhibitor (Roche) and phosphatase inhibitor coctails I and II (Sigma)). The lysates were incubated in anti-VEGFR2 or control IgG-coated wells with shaking for 2 h and washed 3 times with lysis buffer and 3 times with cold kinase assay buffer (20 mM Hepes pH 8, 0.1 mM Na3VO4, 10 mM MnCl2, 1 mM DTT). Kinase assay was performed for 10 min at +37° C.

HUVEC [2] = experiment: Time-lapse chemokinesis assay; details: HUVEC on gelatin, 4 hours time-lapse, FIG. 5B and FIG. 9
Description: as §1
FIG. 9. TCPTP activation by α1-peptide inhibits VEGF induced chemokinesis. HUVEC were plated on gelatin in the presence of the peptides (200 nM) or left untreated for 1 h. The cells were stimulated as indicated and migration of individual cells was tracked using time-lapse microscopy. Representative images of individual cells overlayed with their migration patterns (different colours) at the indicated time points are shown.
Time-lapse chemokinesis assays. HUVEC were plated on gelatin-coated wells and allowed to attach for 1 h in the presence or absence of 200 nM α1TAT or ScrTAT and 20 ng/ml VEGF. Migration of individual cells was recorded at 5 min intervals for 4 h using 20× objective and digital video recording. The migration pathway of at least ten randomly picked cells was tracked using the Metamorph program. The cumulative migration distances were also plotted.

VEGF
stimulation of chemotaxis (HUVEC [1]): > 2 fold | increase of VEGFR2 kinase activity upon VEGF-stimulation (VEGFR2): about 10 fold | induction of HUVEC chemokinesis (HUVEC [2]): 99±25%
